Assay results: the supplement of paper PMC9912026

System: A375_Cra_F7_5/13
Assay: pERK immunofluorescence, normalised; higher = more ERK phosphorylation
Conditions: vemurafenib 0 µM, drug treatment time 24 h
Description: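 A375 or A375 CRISPRa-EGFR (A375_Cra_F7_5/13) cells were adapted for 24 h to a cobimetinib dose series, with or without 1 uM vemurafenib, then stimulated with EGF (100 ng/mL) or mock medium and fixed at the indicated times. pERK was measured by immunofluorescence as the population mean normalised to baseline, with the SD of technical replicates (n=2).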

O=C(c1ccc(F)c(F)c1Nc1ccc(I)cc1F)N1CC(O)([C@@H]2CCCCN2)C1 [cobimetinib]
pERK immunofluorescence
Conditions | cobimetinib 31.62 pM | cobimetinib 0.0001 µM | cobimetinib 0.000316228 µM | cobimetinib 0.001 µM | cobimetinib 0.003162278 µM | cobimetinib 0.01 µM | cobimetinib 0.031622777 µM | cobimetinib 0.1 µM | cobimetinib 0.316227766 µM | cobimetinib 1 µM
EGF 0 ng/mL, time after EGF/mock 0.083 h | 0.992 | 1.01 | 0.951 | 0.771 | 0.467 | 0.234 | 0.142 | 0.111 | 0.0968 | 0.0989
EGF 0 ng/mL, time after EGF/mock 0.5 h | 0.968 | 0.9446 | 0.859 | 0.742 | 0.422 | 0.214 | 0.177 | 0.143 | 0.0997 | 0.09394
EGF 0 ng/mL, time after EGF/mock 2 h | 1.05 | 1.018 | 1.03 | 0.8492 | 0.55 | 0.217 | 0.121 | 0.107 | 0.1 | 0.099798
EGF 0 ng/mL, time after EGF/mock 8 h | 0.974 | 0.999 | 0.9603 | 0.801 | 0.47 | 0.189 | 0.102 | 0.086 | 0.082 | 0.082503
EGF 0 ng/mL, time after EGF/mock 24 h | 1.07 | 1.053 | 1.04 | 0.927 | 0.531 | 0.189 | 0.116 | 0.1 | 0.08927 | 0.0841
EGF 100 ng/mL, time after EGF/mock 0.083 h | 1.47 | 1.44 | 1.43 | 1.42 | 1.37 | 1.27 | 1.15 | 0.883 | 0.31 | 0.111
EGF 100 ng/mL, time after EGF/mock 0.5 h | 1.35 | 1.34 | 1.31 | 1.36 | 1.32 | 1.26 | 1.15 | 1.02 | 0.675 | 0.179
EGF 100 ng/mL, time after EGF/mock 2 h | 1.21 | 1.194 | 1.14 | 1.08 | 0.926 | 0.7446 | 0.65813 | 0.527 | 0.341 | 0.137
EGF 100 ng/mL, time after EGF/mock 8 h | 0.99 | 0.999 | 0.997 | 0.8777 | 0.735 | 0.5778 | 0.475 | 0.3675 | 0.221 | 0.1
EGF 100 ng/mL, time after EGF/mock 24 h | 1.07 | 1.08 | 1.084 | 1.04 | 0.902 | 0.689 | 0.5819 | 0.465 | 0.273 | 0.107
